Results on one molecule are retold here after US8916604B2, “Compositions and methods for epigenetic modification of nucleic acid sequences” (Rutgers, The State University of New Jersey, priority 2011, dated 2014).

One test concerns NQO1. Put plainly: Western blot of TRAMP dorso-lateral prostate tissues. Type of test: in vivo, mouse. The conditions noted are these: D-G1 and D-G2; undetectable in control. The procedure: (§1) The TRAMP C1 cells or dorso-lateral prostate tissues collected from treated and control groups were pooled and homogenized with RIPA buffer (Cell Signaling Technology, Danvers, Mass., U.S.A.) and 10 μg/ml protease inhibitor cocktail (EMD Chemicals, Philadelphia, Pa., U.S.A.). Protein (20 μg) was loaded onto 4-15% SDS-PAGE (Bio-Rad Laboratories, Hercules, Calif., U.S.A.). After separation by SDS-PAGE, the protein was transferred onto nitrocellulose membrane (Millipore Corp., Billerica, Mass., U.S.A.), and then was blocked in 5% bovine serum albumin (BSA) (Fisher Scientific, Fair Law, J. U.S.A.) in tris buffer saline tween-20 (TBST) solution for 1 h. […] After washing min 4 times with TBST solution, the immunoreactive bands were determined by adding SuperSignal West Femto mix (1:1 mix of stable peroxide buffer and luminol/enhancer solution (Thermo Scientific, Rockford, Ill., U.S.A.) to detect immunoreactive bands. The bands were visualized and quantified by BioRad ChemiDoc XRS system (Hercules, Calif., U.S.A.). The primary antibodies used were β-actin, Nrf2, NQO1 (Santa Cruz Biotechnology, Santa Cruz, Calif., U.S.A.), HDAC1, HDAC2, HDAC3, HDAC4 (Cell Signaling Technology Inc., Danvers Mass., U.S.A.), HDAC8 (Proteintech Group Inc., Chicago, Ill., U.S.A.) and DNMT1, DNMT3a, DNMT3b (Imgenex, San Diego, Calif., U.S.A.). […]

In another test the test system is Nrf2. The test is described as above. Type of test: in vivo, mouse. The note with it: D-G1 and D-G2; undetectable in control. The protocol: as §1
The test system of test [1] is first 5 CpGs of Nrf2 gene promoter. Nature of the test: Methylated DNA immunoprecipitation (MeDIP) in TRAMP C1 cells. Type of test: cell-based, mouse. The protocol: The DIM used in the study contains approximately 98% of DIM purchased from Sigma-Aldrich t St. Louis, Mo., USA), TRAMP C1 cells (provided by Dr. Barbara Foster, Department of Pharmacology and Therapeutics, Roswell Park Cancer institute, Buffalo. NY), originally derived from TRAMP prostate tumor, were cultured in Dulbecco's Modified Eagle's Medium (Invitrogen Corp., Carlsbad, Calif. U.S.A.) supplemented with 10% (V/V) fetal bovine serum (FBS) (Invitrogen Corp., Grand Island, N.Y., U.S.A.), penicillin 100 U/ml, and streptomycin 100 μg/ml (Invitrogen Corp., Grand Island, N.Y., U.S.A.), Cells were maintained in a humidified incubator with 5% CO2 at 37° C. Cells were seeded in 10 cm plates for 24 h and then treated with 0.1% DMSO (control) or different concentrations of DIM in 1% FBS containing medium for 5 days. The medium was changed every 2 days (20),
Genomic DNA (8 μg each) extracted from control and DIM treated TRAMP C1 cells were used for the MeDIP analysis, analogous to other chromatin immuno-precipitation (ChIP) analysis. The DNAs were adjusted to 150 μl using TE buffer in DNA. LoBind tubes. DNAs were fragmented by sonication on ice-water using a Bioruptor sonicator (Diagnode Inc., Sparta, N.J., U.S.A.) and the size of sheared DNA fragment (around 300 to 500 bp) was checked by gel electrophoresis. […]

In the case of `c1ccc2c(Cc3c[nH]c4ccccc34)c[nH]c2c1` [DIM, 3,3′-diindolylmethane], in the test on NQO1, the NQO1 protein expression result is “induced”. For the same molecule, in the test on Nrf2, the Nrf2 protein expression result is “induced”. Moreover, the “methylated DNA bound by anti-mecyt antibody” value in test [1] is “reduced”.
